Broadly, the IC50 is the midpoint of a concentration-inhibition curve. High values mean weaker potency, low ones greater potency.

For 19 compounds, IC50 results are on record in US6677368B2, “4-aryl substituted indolinones” (Sugen, Inc., priority 2000, dated 2004).

Bounds are passed on as bounds.

In the assay the target is T1, FLK-1 (Mus musculus, UniProt P35918).
T1 construct: GST-Flklcd purified from sf9 recombinant baculovirus transfomnation (SUGEN, Inc.); host or cells: Sf9 insect cells, recombinant baculovirus
T1 sequence (P35918 784-1345 limits assumed): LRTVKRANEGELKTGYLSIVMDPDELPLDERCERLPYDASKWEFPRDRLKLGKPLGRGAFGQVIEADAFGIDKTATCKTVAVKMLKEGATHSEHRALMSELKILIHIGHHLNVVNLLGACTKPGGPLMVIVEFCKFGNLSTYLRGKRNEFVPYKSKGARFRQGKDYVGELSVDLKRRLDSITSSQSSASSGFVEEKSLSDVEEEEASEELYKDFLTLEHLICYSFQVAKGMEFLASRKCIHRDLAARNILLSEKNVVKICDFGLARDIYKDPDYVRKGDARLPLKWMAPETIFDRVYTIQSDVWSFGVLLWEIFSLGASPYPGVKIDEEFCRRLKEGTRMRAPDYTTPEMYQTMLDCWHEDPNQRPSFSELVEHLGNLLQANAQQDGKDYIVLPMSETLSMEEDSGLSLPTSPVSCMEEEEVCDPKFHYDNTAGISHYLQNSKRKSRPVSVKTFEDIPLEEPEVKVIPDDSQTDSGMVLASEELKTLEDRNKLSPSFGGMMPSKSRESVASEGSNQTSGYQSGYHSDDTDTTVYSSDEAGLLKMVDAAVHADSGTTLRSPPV
The experiment in a line: GST-FLK-1 bioassay (tyrosine kinase activity on poly(glu-tyr)). Format: biochemical. Particulars: GST-Flk1, poly(glu-tyr) substrate, 0.5 μM ATP. As for the experimental part: This assay analyzes the tyrosine kinase activity of GST-Flk1 on poly(glu-tyr) peptides.
1. Corning 96-well ELISA plates (Corning Catalog No. 25805-96).
2. poly(glu-tyr) 4:1, lyophilizate (Sigma Catalog No. P0275), 1 mg/ml in sterile PBS.
3. PBS Buffer: for 1 L, mix 0.2 g KH2PO4, 1.15 g Na2HPO4, 0.2 g KCl and 8 g NaCl in approx. 900 ml dH2O. When all reagents have dissolved, adjust the pH to 7.2 with HCl. Bring total volume to 1 L with dH2O.
4. PBST Buffer: to 1 L of PBS Buffer, add 1.0 ml Tween-20.
5. TBB—Blocking Buffer: for 1 L, mix 1.21 g TRIS, 8.77 g NaCl, 1 ml TWEEN-20 in approximately 900 ml dH2O. Adjust pH to 7.2 with HCl. Add 10 g BSA, stir to dissolve. Bring total volume to 1 L with dH2O. Filter to remove particulate matter.
6. 1% BSA in PBS: add 10 g BSA to approx. 990 ml PBS buffer, stir to dissolve. Adjust total volume to 1 L with PBS buffer, filter to remove particulate matter.
8. GST-Flklcd purified from sf9 recombinant baculovirus transfomnation (SUGEN, Inc.).
12. Kinase Dilution Buffer (KDB): mix 10 ml Hepes (pH 7.5), 1 ml 5M NaCl, 40 μL 100 mM sodium orthovanadate and 0.4 ml of 5% BSA in dH2O with 88.56 ml dH2O.
13. NUNC 96-well V bottom polypropylene plates, Applied Scientific Catalog #AS-72092
14. EDTA: mix 14.12 g ethylenediaminetetraacetic acid (EDTA) with approx. 70 ml dH2O. Add 10 N NaOH until EDTA dissolves. Adjust pH to 8.0. Adjust total volume to 100 ml with dH2O.
15. 1° and 2° Antibody Dilution Buffer: mix 10 ml of 5% BSA in PBS buffer with 89.5 ml TBST.
16. Anti-phosphotyrosine rabbit polyclonal antisera (SUGEN, Inc.)
17. Goat anti-rabbit HRP conjugate.
18. ABST solution: To approx. 900 ml dH2O add 19.21 g citric acid and 35.49 g Na2HPO4. Adjust pH to 4.0 with phosphoric acid. Add 2,2′-Azinobis(3-ethyl-benzthiazoline-6-sulfonic acid (ABTS, Sigma, Cat. No. A-1888, hold for approx. ½ hour, filter.
19. 30% Hydrogen Peroxide.
20. ABST/H2O2: add 3 μl of H2O2 to 15 ml of ABST solution.
1. Coat Corning 96-well ELISA plates with 2 μg of polyEY in 100 μl PBS/well, hold at room temperature for 2 hours or at […] overnight. Cover plates to prevent evaporation.
2. Remove unbound liquid from wells by inverting plate. Wash once with TBST. Pat the plate on a paper towel to remove excess liquid.
3. Add 100 μl of 1% BSA in PBS to each well. Incubate, with shaking, for 1 hr. at room temperature.
5. Soak wells with 50 mM HEPES (pH7.5, 150 μl/well).
6. Dilute test compound with dH2O/4% DMSO to 4 times the desired final assay concentration in 96-well polypropylene plates.
7. Add 25 μl diluted test compound to each well of ELISA plate. In control wells, place 25 μl of dH2O/4% DMSO.
8. Dilute GST-Flk1 0.005 μg (5 ng)/well in KDB.
9. Add 50 μl of diluted enzyme to each well.
10. Add 25 μl 0.5 M EDTA to negative control wells.
11. Add 25 μl of 40 mM MnCl2 with 4×ATP (2 μM) to all wells (100 μl final volume, 0.5 μM ATP final concentration in each well).
12. Incubate, with shaking, for 15 minutes at room temperature.
13. Stop reaction by adding 25 μl of 500 mM EDTA to each well.
14. Wash 3× with TBST and pat plate on paper towel to remove excess liquid.
15. Add 100 μl per well anti-phosphotyrosine antisera, 1:10,000 dilution in antibody dilution buffer. Incubate, with shaking, for 90 min. at room temperature.
17. Add 100 μl/well of goat anti-rabbit HRP conjugate (1:6,000 in antibody dilution buffer). Incubate, with shaking, for 90 minutes are room temperature.
19. Add 100 μl room temperature ABST/H2O2 solution to each well.
20. Incubate, with shaking for 15 to 30 minutes at room temperature.
21. If necessary, stop reaction by adding 100 μl of 0.2 M HCl to each well.
22. Read results on Dynatech MR7000 ELISA reader with test filter at 410 nM and reference filter at 630 nM.
The compound `Cc1cc(C(=O)N2C[C@@H](C)N[C@@H](C)C2)c(/C=C2\C(=O)Nc3cccc(-c4cccc(Cl)c4)c32)[nH]1` [Example 35, 4-(3-Chloro-phenyl)-3-[3-((cis)-3,5-dimethyl-piperazine-1-carbonyl)-5-methyl-1H-pyrrol-2-ylmethylene]-1,3-dihydro-indol-2-one] came in with an IC50 of 92 nM. As to `Cc1[nH]c(/C=C2\C(=O)Nc3cccc(-c4ccccc4F)c32)c(C)c1C(=O)N1CCN(C)CC1` [Example 93, 3-[3,5-Dimethyl-4-(4-methyl-piperazine-1-carbonyl)-1H-pyrrol-2-ylmethylene]-4-(2-fluoro-phenyl)-1,3-dihydro-indol-2-one], the IC50 is less than 9.1 nM. Next, `COc1ccc(-c2cccc3c2/C(=C/c2[nH]c(C)c(C(=O)N4C[C@@H](C)N[C@@H](C)C4)c2C)C(=O)N3)cc1` [Example 40, 3-[4-((cis)-3,5-Dimethyl-piperazine-1-carbonyl)-3,5-dimethyl-1H-pyrrol-2-ylmethylene]-4-(4-methoxy-phenyl)-1,3-dihydro-indol-2-one]: 41 nM; `COc1ccc(-c2cccc3c2/C(=C/c2[nH]c(C)cc2C(=O)NCCN2CCCC2)C(=O)N3)cc1` [Example 41, 2-[4-(4-Methoxy-phenyl)-2-oxo-1,2-dihydro-indol-3-ylidenemethyl]-5-methyl-1H-pyrrole-3-carboxylic Acid (2-Pyrrolidin-1-yl-ethyl)-amide]: 79 nM; `CCOC(=O)c1c(C)[nH]c(/C=C2\C(=O)Nc3cccc(-c4cccc(F)c4)c32)c1CCCN1CCN(C)CC1` [Example 18, 5-[4-(3-Fluoro-phenyl)-2-oxo-1,2-dihydro-indol-3-ylidenemethyl]-2-methyl-4-[3-(4-methyl-piperazin-1-yl)-propyl]-1H-pyrrole-3-carboxylic Acid Ethyl Ester]: 420 nM. For `Cc1[nH]c(/C=C2\C(=O)Nc3cccc(-c4ccc(Br)cc4)c32)c(C)c1C(=O)NCCN(C(C)C)C(C)C` [Example 60, 5-[4-(4-Bromo-phenyl)-2-oxo-1,2-dihydro-indol-3-ylidenemethyl]-2,4-dimethyl-1H-pyrrole-3-carboxylic Acid (2-Diisopropylamino-ethyl)-amide] the value was 18 nM.

Regarding `CCN(CC)CCNC(=O)c1c(C)[nH]c(/C=C2\C(=O)Nc3cccc(-c4ccccc4)c32)c1C` [Example 3, 2,4-Dimethyl-5-(2-oxo-4-phenyl-1,2-dihydro-indol-3-ylidenemethyl)-1H-pyrrole-3-carboxylic Acid (2-Diethylamino-ethyl)-amide], half-maximal inhibition (IC50) required 9 nM. On to `Cc1[nH]c(/C=C2\C(=O)Nc3cccc(-c4cccc(F)c4)c32)c(C)c1C(=O)NCCn1ccnn1` [Example 15, 5-[4-(3-Fluoro-phenyl)-2-oxo-1,2-dihydro-indol-3-ylidenemethyl]-2,4-dimethyl-1H-pyrrole-3-carboxylic Acid (2-[1,2,3]Triazol-1-yl-ethyl)-amide], for which the IC50 worked out at 32 nM. Next, `Cc1[nH]c(/C=C2\C(=O)Nc3cccc(-c4ccc(Cl)cc4)c32)c(C)c1C(=O)N1CCN(C)CC1` [Example 20, 4-(4-Chloro-phenyl)-3-[3,5-dimethyl-4-(4-methyl-piperazine-1-carbonyl)-1H-pyrrol-2-ylmethylene]-1,3-dihydro-indol-2-one]: 230 nM; `CCN(CC)CCNC(=O)c1c(C)[nH]c(/C=C2\C(=O)Nc3cccc(-c4cccc(F)c4)c32)c1C` [Example 13, 5-[4-(3-Fluoro-phenyl)-2-oxo-1,2-dihydro-indol-3-ylidenemethyl]-2,4-dimethyl-1H-pyrrole-3-carboxylic Acid (2-Diethylamino-ethyl)-amide]: 13 nM. For `CCN(CC)CCNC(=O)c1c(C)[nH]c(/C=C2\C(=O)Nc3cccc(-c4cccc(OC)c4)c32)c1C` [Example 46, 5-[4-(3-Methoxy-phenyl)-2-oxo-1,2-dihydro-indol-3-ylidenemethyl]-2,4-dimethyl-1H-pyrrole-3-carboxylic Acid (2-Diethylamino-ethyl)-amide] the value was 9 nM; for `Cc1cc(C(=O)NCCn2ccnn2)c(/C=C2\C(=O)Nc3cccc(-c4ccccc4F)c32)[nH]1` [Example 99, 2-[4-(2-Fluoro-phenyl)-2-oxo-1,2-dihydro-indol-3-ylidenemethyl]-5-methyl-1H-pyrrole-3-carboxylic Acid (2-[1,2,3]Triazol-1-yl-ethyl)-amide], 170 nM. Next, `Cc1cc(C(=O)N2CC[C@H](N(C)C)C2)c(/C=C2\C(=O)Nc3cccc(-c4ccc(F)cc4)c32)[nH]1` [Example 10, 3-[3-((S)-3-Dimethylamino-pyrrolidine-1-carbonyl)-5-methyl-1H-pyrrol-2-ylmethylene]-4-(4-fluoro-phenyl)-1,3-dihydro-indol-2-one]: 180 nM. `CCN(CC)CCNC(=O)c1c(C)[nH]c(/C=C2\C(=O)Nc3cccc(-c4cccc(Br)c4)c32)c1C` [Example 63, 5-[4-(3-Bromo-phenyl)-2-oxo-1,2-dihydro-indol-3-ylidenemethyl]-2,4-dimethyl-1H-pyrrole-3-carboxylic Acid (2-Diethylamino-ethyl)-amide] came in with an IC50 of 43 nM.

Turning to `CCN(CC)CCNC(=O)c1c(C)[nH]c(/C=C2\C(=O)Nc3cccc(-c4ccc(OC(F)(F)F)cc4)c32)c1C` [Example 140, 2,4-Dimethyl-5-[2-oxo-4-(4-trifluoromethoxy-phenyl)-1,2-dihydro-indol-3-ylidenemethyl]-1H-pyrrole-3-carboxylic Acid (2-Diethylamino-ethyl)-amide], the IC50 amounted to 75 nM. Next, `Cc1cc(C(=O)NCCn2ccnn2)c(/C=C2\C(=O)Nc3cccc(-c4cccc(Cl)c4)c32)[nH]1` [Example 34, 2-[4-(3-Chloro-phenyl)-2-oxo-1,2-dihydro-indol-3-ylidenemethyl]-5-methyl-1H-pyrrole-3-carboxylic Acid (2-[1,2,3]Triazol-1-yl-ethyl)-amide]: 1060 nM.

In the case of `COc1ccc(-c2cccc3c2/C(=C/c2[nH]c(C)c(C(=O)NCCN4CCCC4)c2C)C(=O)N3)cc1` [Example 38, 5-[4-(4-Methoxy-phenyl)-2-oxo-1,2-dihydro-indol-3-ylidenemethyl]-2,4-dimethyl-1H-pyrrole-3-carboxylic Acid (2-Pyrrolidin-1-yl-ethyl)-amide], half-maximal inhibition (IC50) required 29 nM. For `Cc1[nH]c(/C=C2\C(=O)Nc3cccc(-c4cccc(C(F)(F)F)c4)c32)c(C)c1C(=O)N1CCN(C)CC1` [Example 104, 3-[3,5-Dimethyl-4-(4-methyl-piperazine-1-carbonyl)-H-pyrrol-2-ylmethylene]-4-(3-trifluoromethyl-phenyl)-1,3-dihydro-indol-2-one] the value was 66 nM. For `Cc1cc(C(=O)N2CC[C@H](N(C)C)C2)c(/C=C2\C(=O)Nc3cccc(-c4cccc(Cl)c4)c32)[nH]1` [Example 32, 4-(3-Chloro-phenyl)-3-[3-((S)-3-dimethylamino-pyrrolidine-1-carbonyl)-5-methyl-1H-pyrrol-2-ylmethylene]-1,3-dihydro-indol-2-one] the value was 51 nM.
